Results as given in article PMC11758220, “Identification of a Privileged Scaffold for Inhibition of Sterol Transport Proteins through the Synthesis and Ring Distortion of Diverse, Pseudo-Natural Products” (ACS Central Science, 2025).

Target: T1, Aster-A (Homo sapiens, UniProt Q96CP6)
T1 construct: endogenous in cells; host or cells: Jurkat cells
T1 sequence (Q96CP6 1-724): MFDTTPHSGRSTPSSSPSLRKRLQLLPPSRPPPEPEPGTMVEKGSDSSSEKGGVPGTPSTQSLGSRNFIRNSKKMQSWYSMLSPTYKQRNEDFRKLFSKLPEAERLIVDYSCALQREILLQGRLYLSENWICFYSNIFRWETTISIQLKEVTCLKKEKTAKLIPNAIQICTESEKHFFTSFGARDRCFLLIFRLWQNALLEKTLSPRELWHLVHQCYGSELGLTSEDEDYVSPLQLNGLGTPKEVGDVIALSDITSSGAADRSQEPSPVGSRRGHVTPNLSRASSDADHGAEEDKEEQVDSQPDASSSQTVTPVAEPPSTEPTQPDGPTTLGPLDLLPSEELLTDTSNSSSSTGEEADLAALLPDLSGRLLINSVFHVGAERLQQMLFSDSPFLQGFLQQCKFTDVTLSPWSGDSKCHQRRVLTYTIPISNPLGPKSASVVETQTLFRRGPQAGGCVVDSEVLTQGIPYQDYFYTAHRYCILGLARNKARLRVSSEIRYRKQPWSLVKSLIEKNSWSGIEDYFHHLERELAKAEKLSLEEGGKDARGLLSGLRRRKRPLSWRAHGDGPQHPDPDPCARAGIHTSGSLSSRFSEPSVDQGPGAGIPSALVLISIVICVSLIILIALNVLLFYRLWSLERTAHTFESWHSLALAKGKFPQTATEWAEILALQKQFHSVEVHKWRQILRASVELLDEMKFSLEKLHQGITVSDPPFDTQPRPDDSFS
Assay: In-cell isothermal shift assay in intact Jurkat cells
Type: cell-based
Details: 10 μM, 1 h, heated to 50 °C, Western blot
Protocol: Jurkat cells were cultured in RPMI 1640 GlutaMAX supplemented with 10% fetal bovine serum and 1% penicillin-streptomycin at 37 °C, 5% CO2.
In-cell thermal stability assay
To a 15 mL falcon tube were added 3 × 10^5 Jurkat cells in media and centrifuged at 300 × g for three minutes. The supernatant was aspirated, and the cells were resuspended in 4 mL media containing 0.1% DMSO. The cells were gently vortexed to avoid pelleting at 30 minutes intervals. After 1 h incubation at 37 °C and 5% CO2, the cells were washed twice with PBS and collected in 0.9 mL PBS and divided into eight aliquots, each 100 µL in PCR tubes. The aliquots were individually heated at different temperatures (Doppio 2 × 48 well Thermal cycler, VWR). After the heat treatment, 10 µL of PBS containing 4.4 %v/v NP-40 was added to each sample and cells were lysed by freeze-thaw four times. The cell lysates were transferred to 1.5 mL Eppendorf tubes and cen trifuged (Micro Star 30, VWR) at 25000 × g, 4 °C for 25 minutes. The cleared supernatants were collected and further analy sed […]
In-cell isothermal shift assay
To eight 15 mL falcon tubes were added 3 × 10^5 Jurkat cells in 1 mL of media per tube and incubated with indicated test compounds for one hour at 37 °C and 5% CO2. The cells were gently vortexed to avoid pelleting at 30 minutes intervals. After one hour incubation at 37 °C and 5% CO2, the cells were centrifuged at 300 × g for three minutes, washed once with PBS and centrifuged again at 300 × g for three minutes. The cells were then resuspended in 50 µL of PBS in PCR tubes. The samples were then heated at the given temperature (Eppendorf Mastercycler ep Gradie nt S). After the heat treatment, 5 µL of PBS containing 4.4 %v/v NP-40 were added to each sample and cells lysed by freeze-thaw four times. Finally, the cell lysates were completely transferred to 1.5 mL Eppendorf tubes and centrifuged (Micro Star 30, VMR) at 25000 × g, 4 °C for 25 minutes. The cleared supernatants were collected and further analysed by western blotting.
Sodium dodecyl sulfate-polyacrylamide gel electrophoresis and western blotting Sodium dodecyl sulfate-polyacrylamide gel electrophoresis (SDS-PAGE) experiments were carried out using 4-15% precast polyacrylamide gels (Bio-Rad) and run at a constant voltage of 100 V for ten minutes followed by 120 V for one hour. Semidry transfer onto a 0.2 µm nitrocellulose membrane was performed using Bio-Rad Trans-Blot Turbo Transfer System at 1.3 A for seven minutes. For chemiluminescent detection, membranes were blocked in 5% milk in TBST (tris -buffered saline with Tween; 137 mM NaCl, 19 mM Tris-base, 2.7 mM KCl and 0.1 %v/v Tween-20, blocking buffer) for one houre at room temperature. […]
Western blot quantification was performed using LI-COR Image Studio Lite. […]

Row | Compound | Stabilization of Aster-A toward thermal unfolding in intact Jurkat cells
1 | CC(C)Oc1ccc(C(=O)Nc2nc3c(s2)CN(C(=O)OC(C)(C)C)CC3)cc1 [Autogramin-2, reference compound] | showed stabilization of Aster-A
2 | CC(C)(C)OC(=O)N1CCN(c2ccc3c(c2)C24CCC5CC(CCC52C)OC4=N3)CC1 (stereo not shown) [Compound 19e] | increased stabilization of Aster-A in intact cells
3 | CC12CCC3CC1CCC21C(=Nc2ccc(N4CCOCC4)cc21)O3 (single isomer, unassigned; (-)) [(−)-19a] | showed stabilization of Aster-A
4 | C[C@]12CC[C@@H]3C[C@H]1CC[C@@]21C(=Nc2ccc(C(F)(F)F)cc21)O3 [Compound 15g] | showed stabilization of Aster-A
